This is an account of results in article PMC10185516, “Synthesis, in vitro inhibitor screening, structure–activity relationship, and molecular dynamic simulation studies of novel thioquinoline derivatives as potent α-glucosidase inhibitors” (Scientific Reports, 2023).

Where two headings read alike, the source gives them in different places.

One may read the IC50 as the midpoint of a concentration-inhibition curve. Usually melting point stands for the temperature, or range, at which the solid turns liquid. What is called Ki is a measure of affinity in units of concentration, obtained from inhibition or displacement.

In data set [1] the target is α-glucosidase. As to conditions: cited from earlier work.
Data set [2] has as its target T1, α-glucosidase enzyme (EC3.2.1.20) (Saccharomyces cerevisiae, UniProt P38158).
T1 construct: purchased Sigma-Aldrich
Kind of data set: biochemical. The class given is biochemical. On the procedure:
α-glucosidase enzyme (EC3.2.1.20, Saccharomyces cerevisiae, 20 U/mg) and substrate (p-nitrophenyl glucopyranoside) were purchased from Sigma-Aldrich. α-glucosidase was dissolved in potassium phosphate buffer (50 mM, pH = 6.8) to obtain the initial activity of 1 U/ml. Then, 20 µl of this enzyme solution was added to 135 µl of potassium phosphate buffer and 20 µl of test compound at various concentrations in DMSO. After 10 min incubation at 37 °C, 25 µl of the substrate at a final concentration of 4 mM was added to the mixture and allowed to incubate at 37 °C for 20 min. Then, the change in absorbance was measured at 405 nm spectroscopically. […] The percentage of inhibition for each entry was calculated by using the following formula: \%Inhibition=Abs control-Abs sample/Abs control×100 IC50 values were obtained from the nonlinear regression curve using the Logit method[15],[29].

Data set [3] concerns the target T2, α-glucosidase (Saccharomyces cerevisiae, UniProt P38158).
T2 construct: purchased Sigma-Aldrich
Description: Enzyme kinetic studies (Lineweaver–Burk plot, secondary plot). The data set is classed as biochemical. How it is done:
A Lineweaver–Burk plot was generated to identify the type of inhibition and the Michaelis–Menten constant (Km) value was determined from the plot between the reciprocal of the substrate concentration (1/[S]) and reciprocal of enzyme rate (1/V) over various inhibitor concentrations.

Details of data set [4]: method as in PMID 29980114. To be noted: at the tested concentrations; cited from earlier work.
Where [5] appears, read: previously reported inhibitors, Fig. 1, recent research.
Where [6] appears, read: previously reported aryl-hydrazide inhibitors, Fig. 1, read-out: IC50.

T1 sequence (P38158 whole entry): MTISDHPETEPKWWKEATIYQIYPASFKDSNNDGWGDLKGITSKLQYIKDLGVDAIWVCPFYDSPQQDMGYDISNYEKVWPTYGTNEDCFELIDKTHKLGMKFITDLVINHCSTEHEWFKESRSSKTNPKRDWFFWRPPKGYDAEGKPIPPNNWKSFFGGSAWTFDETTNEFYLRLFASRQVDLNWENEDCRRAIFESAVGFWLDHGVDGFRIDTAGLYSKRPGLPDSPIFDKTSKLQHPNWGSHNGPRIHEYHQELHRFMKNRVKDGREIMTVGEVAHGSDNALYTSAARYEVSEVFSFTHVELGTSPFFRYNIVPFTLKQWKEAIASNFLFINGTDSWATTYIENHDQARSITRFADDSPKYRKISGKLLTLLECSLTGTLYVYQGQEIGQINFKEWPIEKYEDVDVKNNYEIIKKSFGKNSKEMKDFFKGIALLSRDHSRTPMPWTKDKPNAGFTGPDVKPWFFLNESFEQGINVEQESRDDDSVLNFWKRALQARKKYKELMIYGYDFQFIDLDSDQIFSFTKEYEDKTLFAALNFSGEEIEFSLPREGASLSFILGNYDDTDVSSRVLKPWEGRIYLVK
T2 sequence (P38158 whole entry): as above

With `O=C(O)c1ccc2ccccc2n1` [A], on α-glucosidase [1] (setting [5]), the IC50 was 9.1 ± 2.3 µg/mL.
As for `O=C(O)c1cnc2ccccc2c1` [B], the IC50 at α-glucosidase [1] (setting [5]) was 10.6 ± 1.4 µg/mL.
Consider `O=C(CSc1nc2ccccc2cc1-c1nc2ccccc2[nH]1)Nc1cccc(Cl)c1` [C], for which the IC50 on α-glucosidase [1] (previously reported inhibitor, Fig. 1, read-out: IC50) is 3.2 ± 0.3 µM.
Regarding `O=C(CSc1nc2ccccc2cc1C=NNC(=O)c1ccccc1)Nc1ccccc1` [Compound 9a, 2-((3-((2-Benzoylhydrazineylidene)methyl)quinolin-2-yl)thio)-N-phenylacetamide], the melting point lay within 245 to 247 °C. In data set [2], this compound displayed an IC50 of 88.5 ± 1.3 µM. Besides, the “improvement in inhibitory potency compared to the positive control” value in data set [2] (versus acarbose) was “approximately nine-fold”.
The compound `O=C(CSc1nc2ccccc2cc1C=NNC(=O)c1ccccc1)Nc1ccccc1F` [Compound 9b, 2-((3-((2-Benzoylhydrazineylidene)methyl)quinolin-2-yl)thio)-N-(2-fluorophenyl)acetamide] returned a melting point of 268 to 270 °C. The compound also registered an IC50 in data set [2] of 109.4 ± 0.2 µM.
In the same order, the values of `O=C(CSc1nc2ccccc2cc1C=NNC(=O)c1ccccc1)Nc1ccc(F)cc1` [Compound 9c, 2-((3-((2-Benzoylhydrazineylidene)methyl)quinolin-2-yl)thio)-N-(4-fluorophenyl)acetamide] are 271 to 273 °C and 46 ± 0.5 µM.
In the same order, the values of `O=C(CSc1nc2ccccc2cc1C=NNC(=O)c1ccccc1)Nc1cccc(Cl)c1` [Compound 9d, 2-((3-((2-Benzoylhydrazineylidene)methyl)quinolin-2-yl)thio)-N-(3-chlorophenyl)acetamide] are 255 to 257 °C and 193.8 ± 1 µM.
In the same order, the values of `O=C(CSc1nc2ccccc2cc1C=NNC(=O)c1ccccc1)Nc1ccc(Cl)cc1` [Compound 9e, 2-((3-((2-Benzoylhydrazineylidene)methyl)quinolin-2-yl)thio)-N-(4-chlorophenyl)acetamide] are 262 to 264 °C and 234.9 ± 0.9 µM.
For `O=C(CSc1nc2ccccc2cc1C=NNC(=O)c1ccccc1)Nc1ccc(Br)cc1` [Compound 9f, 2-((3-((2-Benzoylhydrazineylidene)methyl)quinolin-2-yl)thio)-N-(4-bromophenyl)acetamide], the melting point was in the range of 254 to 257 °C. Moreover, the midpoint of inhibition in data set [2], the IC50, lay at 352.4 ± 1.1 µM.
`O=C(CSc1nc2ccccc2cc1C=NNC(=O)c1ccccc1)Nc1ccc([N+](=O)[O-])cc1` [Compound 9g, 2-((3-((2-benzoylhydrazineylidene)methyl)quinolin-2-yl)thio)-N-(4-nitrophenyl)acetamide]: the melting point is 241 to 243 °C. This compound also yielded an IC50 in data set [2] of 93.7 ± 1.5 µM.
Regarding `Cc1ccccc1NC(=O)CSc1nc2ccccc2cc1C=NNC(=O)c1ccccc1` [Compound 9h, 2-((3-((2-Benzoylhydrazineylidene)methyl)quinolin-2-yl)thio)-N-(o-tolyl)acetamide], the melting point is 260 to 263 °C. In addition, the IC50 in data set [2] was determined as 141.8 ± 0.6 µM.
`Cc1ccc(NC(=O)CSc2nc3ccccc3cc2C=NNC(=O)c2ccccc2)cc1` [Compound 9i, 2-((3-((2-Benzoylhydrazineylidene)methyl)quinolin-2-yl)thio)-N-(p-tolyl)acetamide] came in with a melting point of 254 to 256 °C. The compound further showed an IC50 in data set [2] of 305 ± 1.1 µM.
In the same order, the values of `COc1ccc(NC(=O)CSc2nc3ccccc3cc2C=NNC(=O)c2ccccc2)cc1` [Compound 9j, 2-((3-((2-Benzoylhydrazineylidene)methyl)quinolin-2-yl)thio)-N-(4-methoxyphenyl)acetamide] are 241 to 243 °C and 24.7 ± 0.3 µM.
In the same order, the values of `CCc1ccc(NC(=O)CSc2nc3ccccc3cc2C=NNC(=O)c2ccccc2)cc1` [Compound 9k, 2-((3-((2-Benzoylhydrazineylidene)methyl)quinolin-2-yl)thio)-N-(4-ethylphenyl)acetamide] are 255 to 257 °C and 60.4 ± 0.2 µM.
In turn, `Cc1cccc(NC(=O)CSc2nc3ccccc3cc2C=NNC(=O)c2ccccc2)c1C` [Compound 9l, 2-((3-((2-Benzoylhydrazineylidene)methyl)quinolin-2-yl)thio)-N-(2,3-dimethylphenyl)acetamide] registered a melting point of 241 to 243 °C. Moreover, the IC50 in data set [2] was determined as 37.99 ± 0.2 µM.
As to `Cc1cccc(C)c1NC(=O)CSc1nc2ccccc2cc1/C=N/NC(=O)c1ccccc1` [Compound 9m, 2-((3-((2-Benzoylhydrazineylidene)methyl)quinolin-2-yl)thio)N(2,6dimethylphenyl)acetamide], in data set [2] (α-glucosidase inhibition, mean ± SD, read-out: IC50), the IC50 was found to be 14 ± 0.6 µM. The mode of inhibition result at α-glucosidase [3] (Lineweaver–Burk plot, Km increased, Vmax unchanged) was “competitive”. Moreover, the Ki at α-glucosidase [3] (from plot of Km versus inhibitor concentration, read-out: Ki (inhibition constant)) was determined as 18 µM.
`O=C(CSc1nc2ccccc2cc1C=NNC(=O)c1ccccc1)Nc1ccc2ccccc2c1` [Compound 9n, 2-((3-((2-Benzoylhydrazineylidene)methyl)quinolin-2-yl)thio)-N-(naphthalen-2-yl)acetamide] showed a melting point of 263 to 265 °C. For the same compound, it took 18.4 ± 0.4 µM to reach half-maximal inhibition in data set [2] (IC50).
In the same order, the values of `O=C(CSc1nc2ccccc2cc1C=NNC(=O)c1ccccc1)NCc1ccccc1` [Compound 9o, 2-((3-((2-Benzoylhydrazineylidene)methyl)quinolin-2-yl)thio)-N-benzylacetamide] are 241 to 243 °C and 373.8 ± 0.8 µM.
`O=C(CSc1nc2ccccc2cc1C=NNC(=O)c1ccccc1)NCc1ccc(F)cc1` [Compound 9p, 2-((3-((2-Benzoylhydrazineylidene)methyl)quinolin-2-yl)thio)-N-(4-fluorobenzyl)acetamide] returned a melting point of 269 to 271 °C. This compound returned an IC50 in data set [2] of 78 ± 2.4 µM.
For `COc1ccc2nc3cc(Cl)ccc3c(SCC(=O)Nc3ccc(C)cc3)c2c1` [D], the IC50 on α-glucosidase [1] (previously reported inhibitor and its positive control, read-out: IC50) was 80 ± 2 µM. Besides, the toxicity result in data set [4] is given as “no toxicity”.
Turning to `O=C(N/N=C/c1ccc(Cl)cc1)c1ccc(-c2nc3ccccc3s2)cc1` [E], the IC50 at α-glucosidase [1] (setting [6]) was 83.8 ± 0.89 µM.
With `O=C(N/N=C/c1cccc(F)c1)c1ccc2nc(-c3ccccc3)c(-c3ccccc3)nc2c1` [F], the IC50 on α-glucosidase [1] (setting [6]) is 111 ± 6 µM.
